Patent publication US20080021026A1, “BENZOTHIOPHENE INHIBITORS OF RHO KINASE” (priority 2006, published 2008)
pIC50: −log10 of the molar value.

Columns and labels:
[1] = molecular target: T1, recombinant N-terminal GST-tagged human Rho kinase 1 (ROCK1, amino acids 1-535) (Homo sapiens, UniProt Q13464); test: In vitro Rho kinase assay (luciferase-based ATP consumption), ROCK1; assay type: biochemical; settings: recombinant GST-tagged human ROCK1, luciferase-based ATP consumption; read-out: ROCK1 IC50
T1 construct: ROCK1, amino acids 1-535; purchased Invitrogen Inc. PV-3691
T1 sequence (Q13464 1-535): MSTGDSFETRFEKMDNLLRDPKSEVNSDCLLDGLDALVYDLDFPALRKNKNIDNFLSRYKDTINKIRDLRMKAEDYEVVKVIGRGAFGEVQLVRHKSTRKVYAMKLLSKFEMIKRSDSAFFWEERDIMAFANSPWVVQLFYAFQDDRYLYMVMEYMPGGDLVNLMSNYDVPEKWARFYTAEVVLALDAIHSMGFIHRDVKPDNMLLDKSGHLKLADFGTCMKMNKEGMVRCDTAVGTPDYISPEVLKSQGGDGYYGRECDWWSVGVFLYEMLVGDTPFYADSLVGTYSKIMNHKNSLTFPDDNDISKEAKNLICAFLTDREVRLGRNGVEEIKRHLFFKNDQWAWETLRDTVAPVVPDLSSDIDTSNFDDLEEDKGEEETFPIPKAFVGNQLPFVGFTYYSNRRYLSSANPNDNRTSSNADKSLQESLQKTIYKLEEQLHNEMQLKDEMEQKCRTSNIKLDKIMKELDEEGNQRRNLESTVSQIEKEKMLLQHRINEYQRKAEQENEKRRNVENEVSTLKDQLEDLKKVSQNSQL
Description: In Vitro Rho Kinase Assay
Rho kinase biochemical assays described below depend on firefly luciferase-based, indirect measurement of total ATP consumption by the kinase following incubation with substrate and ATP. 25 μl of Rho kinase assay buffer (20 mM Tris-HCL [pH 7.5], 1 mM MgCl2, 0.4 mM CaCl2, 0.15 mM EGTA, 0.1 mg/ml bovine serum albumin) containing 0.82 μg/ml of recombinant N-terminal GST-tagged human Rho kinase 1 (ROCK1, amino acids 1-535, Invitrogen Inc., cat. #PV-3691) or recombinant N-terminal GST-tagged human Rho kinase 2 (ROCK2, amino acids 1-552, Invitrogen Inc., cat #PV3759), 100 μg/ml S6 peptide substrate (related to amino acids 218-249 of the human 40S ribosomal protein S6, and suitable for ROCK1 or ROCK2, e.g. Upstate/Millipore Inc., cat #12-420), and 3 µM ATP are dispensed to wells of a 384 multi-well opaque plate. The plate is centrifuged for 30 seconds at approximately 200×g. 240 nl of test compound in DMSO is dispensed to each well by passive pin transfer. The lag phase of this in vitro kinase reaction permits addition of compounds soon after the reaction initiates. The reaction is allowed to incubate at 30° C. for 2 hours. The assay plates are sealed and maintained in a humidified environment. After 2 hours, 25 μl of easylite protein kinase assay reagent (Perkin-Elmer, Inc.) is dispensed. After an additional 10 minute incubation at room temperature (about 22° C.), luminescence activity is measured on a Molecular Devices Analyst multi-mode plate reader or other suitable plate reader. Kinase inhibition results in less ATP consumption, and therefore increased luminescence signal. Negative control activity is measured with DMSO lacking any test compound. The positive control is 2-methyl-1-(4-methylisoquinolin-5-ylsulfonyl)perhydro-1,4-diazepine hydrochloride (aka H-1152P, HCl salt). Efficacy is measured as a percentage of positive control activity. […] The designation NT means the cited example was not tested.

[2] = molecular target: T2, recombinant N-terminal GST-tagged human Rho kinase 2 (ROCK2, amino acids 1-552) (Homo sapiens, UniProt O75116); test: In vitro Rho kinase assay (luciferase-based ATP consumption), ROCK2; assay type: biochemical; settings: recombinant GST-tagged human ROCK2, luciferase-based ATP consumption; read-out: ROCK2 IC50
T2 construct: ROCK2, amino acids 1-552; purchased Invitrogen Inc. PV3759
T2 sequence (O75116 1-552): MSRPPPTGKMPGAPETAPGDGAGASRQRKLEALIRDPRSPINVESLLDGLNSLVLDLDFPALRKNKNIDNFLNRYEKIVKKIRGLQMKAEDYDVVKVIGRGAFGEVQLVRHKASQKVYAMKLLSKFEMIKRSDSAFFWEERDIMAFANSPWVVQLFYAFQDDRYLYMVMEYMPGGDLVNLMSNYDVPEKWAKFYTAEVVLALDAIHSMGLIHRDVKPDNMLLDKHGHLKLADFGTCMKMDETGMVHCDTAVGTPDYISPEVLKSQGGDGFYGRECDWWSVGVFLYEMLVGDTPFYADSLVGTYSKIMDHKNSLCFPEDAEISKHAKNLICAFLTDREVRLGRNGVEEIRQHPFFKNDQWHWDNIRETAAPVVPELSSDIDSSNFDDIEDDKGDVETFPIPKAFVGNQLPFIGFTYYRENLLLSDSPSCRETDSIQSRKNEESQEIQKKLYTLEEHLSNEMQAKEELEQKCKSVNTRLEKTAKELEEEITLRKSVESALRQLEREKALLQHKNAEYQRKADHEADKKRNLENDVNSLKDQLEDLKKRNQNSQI
Outline: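 Luciferase-based luminescence of leftover ATP after 2 h at 30 °C, where inhibition raises signal, reports activity of GST-tagged ROCK2 (aa 1-552) at 0.82 μg/ml. Conditions: S6 peptide 100 μg/ml, […], pH 7.5 Tris buffer. Results given as percent of H-1152P control activity.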

SMILES | pIC50 [1] | pIC50 [2]
Cc1c(-c2ccnc(N)n2)oc2ccc(Br)cc12 [Example 91, 4-(5-Bromo-3-methylbenzofuran-2-yl)pyrimidin-2-amine] | > 5.30 | > 5.30
Cc1c(-c2ccnc(N)n2)sc2ccc(CNC(=O)c3cc(F)ccc3[N+](=O)[O-])cc12 [Example 230, Cc1c(sc2ccc(CNC(═O)c3cc(F)ccc3[N+]([O−])═O)cc12)-c4ccnc(N)n4] | > 5.30 | > 5.30
Cc1c(-c2ccnc(N)n2)sc2ccc(CNC(=O)c3cccc4ccccc34)cc12 [Example 189, Cc1c(sc2ccc(CNC(═O)c3cccc4ccccc34)cc12)-c5ccnc(N)n5] | > 5.30 | > 5.30
COc1ccc(OC)c(C(=O)NCc2ccc3sc(-c4ccnc(N)n4)c(C)c3c2)c1 [Example 36, N-((2-(2-Aminopyrimidin-4-yl)-3-methylbenzo[b]thiophen-5-yl)methyl)-2,5-dimethoxybenzamide] | > 5.30 | > 5.30
Cc1c(-c2ccnc(N)n2)sc2ccc(CNC(=O)c3cccc(O)c3)cc12 [Example 121, Cc1c(sc2ccc(CNC(═O)c3cccc(O)c3)cc12)-c4ccnc(N)n4] | > 5.30 | > 5.30
Cc1c(-c2ccnc(N)n2)sc2ccc(CNC(=O)C(C)c3ccc(-c4ccccc4)c(F)c3)cc12 (stereo not shown) [Example 318, CC(C(═O)NCc1ccc2sc(c(C)c2c1)-c3ccnc(N)n3)c4ccc(c(F)c4)-c5ccccc5] | < 5.30 | > 5.30
COc1ccccc1CC(=O)NCc1ccc2sc(-c3ccnc(N)n3)c(C)c2c1 [Example 177, COc1ccccc1CC(═O)NCc2ccc3sc(c(C)c3c2)-c4ccnc(N)n4] | < 5.30 | > 5.30
Cc1c(-c2ccnc(N)n2)sc2ccc(CNC(=O)C=Cc3ccccc3O)cc12 [Example 161, Cc1c(sc2ccc(CNC(═O)C═Cc3ccccc3O)cc12)-c4ccnc(N)n4] | > 5.30 | > 5.30
Cc1cc(C(=O)NCc2ccc3sc(-c4ccnc(N)n4)c(C)c3c2)cc(Cl)n1 [Example 187, Cc1cc(cc(Cl)n1)C(═O)NCc2ccc3sc(c(C)c3c2)-c4ccnc(N)n4] | > 5.30 | > 5.30
Cc1c(-c2ccnc(N)n2)sc2ccc(CNC(=O)c3cnc[nH]3)cc12 [Example 102, Cc1c(sc2ccc(CNC(═O)c3cnc[nH]3)cc12)-c4ccnc(N)n4] | > 5.30 | > 5.30
Cc1c(-c2ccnc(N)n2)sc2ccc(CNC(=O)C(C)O)cc12 (stereo not shown) [Example 98, C[C](O)C(═O)NCc1ccc2sc(c(C)c2c1)-c3ccnc(N)n3] | < 5.30 | > 5.30
COc1cc(C(=O)NCc2ccc3sc(-c4ccnc(N)n4)c(C)c3c2)c([N+](=O)[O-])cc1OC [Example 301, COc1cc(C(═O)NCc2ccc3sc(c(C)c3c2)-c4ccnc(N)n4)c(cc1OC)[N+]([O−])═O] | < 5.30 | > 5.30
COc1ccc(Br)c(C(=O)NCc2ccc3sc(-c4ccnc(N)n4)c(C)c3c2)c1 [Example 310, COc1ccc(Br)c(c1)C(═O)NCc2ccc3sc(c(C)c3c2)-c4ccnc(N)n4] | < 5.30 | > 5.30
Cc1c(-c2ccnc(N)n2)sc2ccc(CNC(=O)c3cccc([N+](=O)[O-])c3)cc12 [Example 180, Cc1c(sc2ccc(CNC(═O)c3cccc(c3)[N+]([O−])═O)cc12)-c4ccnc(N)n4] | > 5.30 | > 5.30
Cc1c(-c2ccnc(N)n2)sc2ccc(CNC(=O)c3cccc(O)c3O)cc12 [Example 143, Cc1c(sc2ccc(CNC(═O)c3cccc(O)c3O)cc12)-c4ccnc(N)n4] | < 5.30 | > 5.30
Cc1c(-c2ccnc(N)n2)sc2ccc(CNC(=O)CC3Cc4ccccc4C3)cc12 [Example 198, Cc1c(sc2ccc(CNC(═O)CC3Cc4ccccc4C3)cc12)-c5ccnc(N)n5] | < 5.30 | > 5.30
CCN(CC)c1ccc(C(=O)NCc2ccc3sc(-c4ccnc(N)n4)c(C)c3c2)cc1 [Example 254, CCN(CC)c1ccc(cc1)C(═O)NCc2ccc3sc(c(C)c3c2)-c4ccnc(N)n4] | < 5.30 | > 5.30
